Assay: molar heat capacity at constant pressure
Details: 101.33 kPa, Crystal, Small (less than 1 g) adiabatic calorimetry

[Al+3].[Al+3].[O-2].[O-2].[O-2] [aluminum oxide (Al2O3)]
Details	molar heat capacity at constant pressure [J/K/mol]
67.51 K	4.23
72.34 K	5.283
77.04 K	6.242
81.8 K	7.403
86.61 K	8.725
91.44 K	10.14
96.31 K	11.67
101.2 K	13.33
106.12 K	15.05
111.05 K	16.78
116.01 K	18.55
120.97 K	20.4
125.95 K	22.45
126.3 K	22.61
130.94 K	24.45
131.11 K	24.51
136.11 K	26.55
141.13 K	28.63
146.18 K	30.36
151.22 K	32.53
156.26 K	34.6
161.32 K	36.54
166.38 K	38.67
171.45 K	40.51
176.54 K	42.37
181.62 K	44.42
186.71 K	46.27
191.8 K	48.19
192.43 K	48.27
197.63 K	50.37
202.75 K	52.12
207.86 K	53.85
212.97 K	55.55
218.09 K	57.33
223.2 K	59.08
228.33 K	60.72
233.45 K	62.37
238.56 K	63.95
243.82 K	65.47
248.97 K	66.83
253.98 K	68.28
259.13 K	69.78
264.27 K	71.19
269.43 K	72.53
274.59 K	73.76
279.73 K	74.97
284.88 K	76.16
290.03 K	77.34
295.19 K	78.6
300.35 K	79.79
305.76 K	80.81
311 K	82
316.16 K	83.02
321.33 K	83.65
326.51 K	84.83
331.66 K	86.08

O=C(O)c1ccccc1 [benzoic acid]
Details	molar heat capacity at constant pressure [J/K/mol]
15.95 K	7.243
17.21 K	7.834
19 K	9.964
20.93 K	12.14
22.91 K	14.48
25.23 K	16.99
27.83 K	19.32
30.45 K	22.55
33.46 K	25.66
36.82 K	28.56
40.35 K	31.83
42.49 K	34.49
44.38 K	35.05
46.36 K	38.04
50.06 K	39.2
52.26 K	40.57
54.24 K	41.94
54.48 K	43.06
56.71 K	43.66
59.17 K	46.1
59.64 K	45.51
63.04 K	47.67
67.38 K	50.03
72.18 K	52.48
77.01 K	54.7
81.66 K	56.45
86.47 K	58.38
91.42 K	60.83
96.33 K	62.66
101.31 K	64.69
106.39 K	66.75
111.42 K	68.59
116.46 K	70.27
121.51 K	72.23
126.57 K	74.39
131.52 K	76.4
136.54 K	78.39
141.64 K	80.14
146.72 K	81.95
151.83 K	83.84
156.96 K	85.94
162.08 K	87.95
167.21 K	90.16
172.34 K	92.08
177.47 K	93.88
182.61 K	95.82
187.75 K	97.76
192.89 K	100.22
198.03 K	102.35
203.11 K	104.33
208.2 K	106.33
213.34 K	108.35
218.49 K	110.69
223.64 K	113.13
228.8 K	115.06
233.96 K	117.66
239.1 K	120.1
244.26 K	122.38
249.39 K	124.56
254.51 K	127.05
259.67 K	129.62
264.84 K	131.98
269.99 K	134.13
275.13 K	137.14
280.31 K	138.73
285.48 K	141.06
290.65 K	143.42
296.6 K	146.34
302.17 K	148.97
306.93 K	151.12
312.15 K	153.27
317.33 K	155.37
322.49 K	157.74
326.5 K	160.6
330.48 K	161.44
335.65 K	163.8
340.82 K	165.96
